What was measured:
D2-DOP-CLONE [1] = molecular target: T1, D2-DOP-CLONE (Rattus norvegicus, UniProt P61169); test: Competition binding against [3H]-86170, cloned rat D2 receptors expressed in CHO-K1 cells (Table II); conditions: ligand 86170 (2 nM)
T1 construct: expressed in transfected cells; host or cells: CHO-K1
Procedure: (§1) As was done for Table I, competition binding experiments employed eleven dilutions of test compounds of Formula II competing with [^3 H]-5-(dipropylamino)-5,6-dihydro-4H-imidazo(4,5,1-ij)quinolin-2(1H)-one (R-enantiomer) ("86170") (62 Ci/mmol, 2 nM) and [^3 H]-7-OH-DPAT ("7-OH-DPAT") (107 Ci/mmol, 0.5 nM) for D2 and D3 binding sites, respectively. (Lahti, R. A., Eur. J. Pharmacol., 202, 289 (1991)) In each experiment, cloned rat receptors expressed in CHO-K1 cells were used. (Chio, C. L., Nature, 343, 266 (1990); and Huff, R. M., Mol. Pharmacol., 45, 51-60 (1993). Ki values were calculated with the Chen-Prushoff equation. The results are shown in Table II for compounds prepared under Scheme 5.

D3-DOP-CLONE [2] = molecular target: T2, D3-DOP-CLONE (Rattus norvegicus, UniProt P19020); test: Competition binding against [3H]-7-OH-DPAT, cloned rat D3 receptors expressed in CHO-K1 cells (Table II); conditions: ligand 7-OH-DPAT (0.5 nM)
T2 construct: expressed in transfected cells; host or cells: CHO-K1
T2 sequence (P19020 whole entry): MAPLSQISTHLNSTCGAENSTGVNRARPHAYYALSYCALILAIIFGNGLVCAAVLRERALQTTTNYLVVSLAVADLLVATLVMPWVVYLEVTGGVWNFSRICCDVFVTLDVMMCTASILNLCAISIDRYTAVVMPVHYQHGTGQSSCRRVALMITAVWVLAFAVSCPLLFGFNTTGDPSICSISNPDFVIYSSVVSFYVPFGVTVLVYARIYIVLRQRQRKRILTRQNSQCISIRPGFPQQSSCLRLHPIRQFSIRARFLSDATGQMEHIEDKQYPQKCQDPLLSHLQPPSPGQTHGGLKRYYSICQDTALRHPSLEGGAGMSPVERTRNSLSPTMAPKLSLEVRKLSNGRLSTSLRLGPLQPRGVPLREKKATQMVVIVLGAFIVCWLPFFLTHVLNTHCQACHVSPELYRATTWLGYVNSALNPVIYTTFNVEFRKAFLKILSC
Procedure: as §1

D3-DOP-CLONE [3] = molecular target: T2, D3-DOP-CLONE; test: Competition binding against [3H]-spiperone, cloned rat D3 receptors expressed in CHO-K1 cells (Table I); design: key to Ki (nM): *: indicates compound was inactive; conditions: ligand SPI (0.5 nM)
Procedure: (§2) Competition binding experiments employed eleven dilutions of test compounds of Formula I competing with [^3 H]-5-(dipropylamino)-5,6-dihydro-4H-imidazo(4,5,1-ij)quinolin-2(1H)-one (R-enantiomer) ("86170") (62 Ci/mmol, 2 nM) and [^3 H]-spiperone ("SPI") (107 Ci/mmol, 0.5 nM) for D2 and D3 binding sites, respectively. (Lahti, R. A., Eur. J. Pharmacol., 202, 289 (1991)) In each experiment, cloned rat receptors expressed in CHO-K1 cells were used. (Chio, C. L., Nature, 343, 266 (1990); and Huff, R. M., Mol. Pharmacol. 45, 51-60 (1993)).

D2-DOP-CLONE [4] = molecular target: T1, D2-DOP-CLONE; test: Competition binding against [3H]-86170, cloned rat D2 receptors expressed in CHO-K1 cells (Table I); design: key to Ki (nM): *: indicates compound was inactive; conditions: ligand 86170 (2 nM)
Procedure: as §2

Dopamine = Dopamine screen; format: binding

T1 sequence (P61169 whole entry): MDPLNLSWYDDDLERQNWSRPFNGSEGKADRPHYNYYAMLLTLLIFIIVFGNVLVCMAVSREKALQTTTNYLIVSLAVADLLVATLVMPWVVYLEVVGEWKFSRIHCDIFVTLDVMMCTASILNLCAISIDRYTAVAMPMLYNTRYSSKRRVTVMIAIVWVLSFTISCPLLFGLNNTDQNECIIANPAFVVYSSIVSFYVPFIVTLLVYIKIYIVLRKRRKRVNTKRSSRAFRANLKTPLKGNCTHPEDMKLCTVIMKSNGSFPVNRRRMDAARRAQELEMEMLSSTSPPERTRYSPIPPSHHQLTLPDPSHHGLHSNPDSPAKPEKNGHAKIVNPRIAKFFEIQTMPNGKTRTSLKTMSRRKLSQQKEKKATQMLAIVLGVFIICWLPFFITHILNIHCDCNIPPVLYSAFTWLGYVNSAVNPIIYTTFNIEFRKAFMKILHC

**Q.** For `CCCN(CCC)C1CCc2nc(OS(=O)(=O)c3ccc(Cl)cc3)ccc2C1` (centres unmarked) [Compound 53], which Ki (D2-DOP-CLONE [1]) is on record?
**A.** Its Ki is 184 nM.

**Q.** And the Ki (D3-DOP-CLONE [2])?
**A.** The Ki was 3 nM.

**Q.** Which results are given for `CCCN(CCC)[C@@H]1CCc2ccc(CNC(=O)c3ccc(C#N)cc3)cc2C1` [Example 9, (R)-4-Cyano-N-[[7-(dipropylamino)-5,6,7,8-tetrahydro-2-naphthalenyl]methyl]benzamide]?
**A.** Ki (nM) (D3-DOP-CLONE [3]): *; Ki (nM) (D2-DOP-CLONE [4]): *

**Q.** For `CCCN(CCC)[C@@H]1CCc2ccc(CNS(=O)(=O)c3cn(C)cn3)cc2C1` [Example 6, (R)-N-[[7-(Dipropylamino)-5,6,7,8-tetrahydro-2-naphthalenyl]methyl]1-methyl-1H-imidazole-4-sulfonamide], which Ki (D3-DOP-CLONE [3]) is on record?
**A.** Its Ki is 1450 nM.

**Q.** And the Ki (D2-DOP-CLONE [4])?
**A.** Its Ki is 1680 nM.

**Q.** Which Ki (D3-DOP-CLONE [3]) does the source give for `CCCN(CCC)[C@@H]1CCc2ccc(CNS(=O)(=O)c3ccc(C#N)cc3)cc2C1` [Example 2, (R)-4-Cyano-N-[[7-(dipropylamino)-5,6,7,8-tetrahydro-2-naphthalenyl]methyl]benzenesulfonamide] here?
**A.** The Ki was 32 nM.

**Q.** And the Ki (D2-DOP-CLONE [4])?
**A.** Its Ki is 1440 nM.

**Q.** What does the source list for `CCCN(CCC)[C@@H]1CCc2ccc(CNS(=O)(=O)c3ccc(Cl)cc3)cc2C1` [Example 3, (R)-4-Chloro-N-[[7-(dipropylamino)-5,6,7,8-tetrahydro-2-naphthalenyl]methyl]benzenesulfonamide]?
**A.** Ki (D3-DOP-CLONE [3]): 12 nM; Ki (D2-DOP-CLONE [4]): 206 nM

**Q.** What does the source list for `CCCN(CCC)[C@@H]1CCc2ccc(NS(=O)(=O)c3ccc(C#N)cc3)cc2C1` [Example 11, (R)-4-Cyano-N-[7-(dipropylamino)-5,6,7,8-tetrahydro-2-naphthalenyl]benzenesulfonamide]?
**A.** Ki (D3-DOP-CLONE [3]): 195 nM; Ki (D2-DOP-CLONE [4]): > 2240 nM

**Q.** How did the “activity in dopamine screen” value (Dopamine) turn out when `CCCN(CCC)[C@@H]1CCc2ccc(CNS(=O)(=O)c3cccc(C#N)c3)cc2C1` [Example 5, (R)-3-Cyano-N-[[7-(dipropylamino)-5,6,7,8-tetrahydro-2-naphthalenyl]methyl]benzenesulfonamide] was run?
**A.** The value was “Inactive”.

**Q.** And the “Ki (nM)” value (D3-DOP-CLONE [3])?
**A.** Its value is “*”.

**Q.** And the Ki (D2-DOP-CLONE [4])?
**A.** The Ki was 786 nM.

**Q.** For `CCCN(CCC)[C@@H]1CCc2ccc(CNS(=O)(=O)c3ccc([N+](=O)[O-])cc3)cc2C1` [Example 4, (R)-4-Nitro-N-[[7-(dipropylamino)-5,6,7,8-tetrahydro-2-naphthalenyl]methyl]benzenesulfonamide], which Ki (D3-DOP-CLONE [3]) is on record?
**A.** The Ki was 109 nM.

**Q.** What about the Ki (D2-DOP-CLONE [4]) of the same compound?
**A.** Its Ki is 772 nM.

**Q.** For `CCCNC1CCc2nc(OS(=O)(=O)c3ccc(Cl)cc3)ccc2C1` (centres unmarked) [Compound 52], which Ki (D2-DOP-CLONE [1]) is on record?
**A.** The Ki was 357 nM.

**Q.** What about the Ki (D3-DOP-CLONE [2]) of the same compound?
**A.** Its Ki is 6 nM.

**Q.** With `CCCN(CCC)[C@@H]1CCc2ccc(CNC(=O)c3ccc(Cl)cc3)cc2C1` [Example 8, (R)-4Chloro-N-[[7-(dipropylamino)-5,6,7,8-tetrahydro-2-naphthalenyl]methyl]benzamide] as the compound, how does the Ki (D3-DOP-CLONE [3]) read?
**A.** The Ki was 87 nM.

**Q.** What about the Ki (D2-DOP-CLONE [4]) of the same compound?
**A.** The Ki was 177 nM.

**Q.** What does the source list for `CCCN(CCC)[C@@H]1CCc2ccc(NS(=O)(=O)c3ccc(Cl)cc3)cc2C1` [Example 10, (R)-4-Chloro-N-[7-(dipropylamino)-5,6,7,8-tetrahydro-2-naphthalenyl]benzenesulfonamide]?
**A.** Ki (D3-DOP-CLONE [3]): 18 nM; Ki (D2-DOP-CLONE [4]): 324 nM
